Source: patent US10124008B2, “Use of inhibitors of acid sphingomyelinase to treat acquired and inherited retinal degenerations” (Wisconsin Alumni Research Foundation, priority 2014, dated 2018)
Entries after “also recorded” stand apart in the source; their conditions may differ.

What was measured:
[1] = test system: acetylated tubulin in polarized primary RPE; assay: Immunofluorescence staining of acetylated and tyrosinated tubulin; type: cell-based, porcine; details: for acetylated tubulin in RPE with A2E: inhibitors 10 μM for 3 h, 48 h after A2E treatment
Experimental: ALEXAFLUOR secondary antibodies were used at 1:500 and rhodamine-phalloidin (Cytoskeleton, PHDR1) at 1:200. Filters were mounted under coverslips on glass slides under […] (Vector labs), sealed and visualized with Andor Revolution XD spinning disk confocal microscope using a 60×1.4 NA oil objective with identical exposures and gains for each antibody. Acetylated tubulin-labeled stable microtubules (≥5 μm in length) after nocodazole treatment were analyzed manually in the Surpass mode of Imaris (Bitplane).
(§1) We performed two initial screens: first, we compared the ability of functional inhibitors (fluoxetine and amitriptyline) with that of the lone structural ASMase inhibitor zoledronic acid in decreasing acetylated tubulin. Here, polarized RPE monolayers with or without A2E were treated with one of the three inhibitors (10 μM, 3 h). Desipramine as a positive control. At the end of the incubation period, cells were fixed and stained for acetylated tubulin, imaged and the amount of acetylated tubulin in the cells was quantified. Second, we evaluated three additional drugs (sertraline, astemizole and fexofenadine) for their abilities to increase autophagy in the RPE. Cells with or without bisretinoids were transfected with mRFP-GFP-LC3, starved to induce autophagy, treated with drugs and imaged as in FIG. 9D.

[2] = test system: primary RPE cells; assay: Live imaging of tandem fluorescent mRFP-GFP-LC3 (tfLC3), autophagic flux; type: cell-based, porcine; details: for autophagy after mTOR inhibition: polarized primary RPE, Torin 1 50 nM and Torin 2 1.5 μM, 2 h; for autophagic flux / autophagosome-lysosome fusion (tfLC3 EGFP:mRFP): RPE with A2E, 3 h drug incubation (TO901317 1 μM 20 h)
Experimental: RPE cells were transfected with EGFP-LC3 or tandem fluorescent mRFP-GFP-LC3 (Addgene) using the AMAXA NUCLEOFECTOR II (Lonza). Approximately 1.5 million cells and 5 μg of plasmid DNA were used for each transfection. Cells were plated either on serum-coated glass-bottom dishes (Mattek) or […] filters at confluence.
Andor IQ2 software was used for image acquisition and Imaris x64 (Bitplane) for image analysis. […] Trafficking data was collected from three separate transfections for a total of at least 12-30 movies captured for treatment. During image acquisition care was taken to maintain the same laser power, exposure and electron-multiplying gain settings. […] After background subtraction (using the background subtraction algorithm and identical automatic threshold for all images) and smoothing (Gaussian algorithm with identical threshold settings for all images), Spots and Tracks algorithms were used to identify vesicles and follow them through time and cell-space to obtain total track length and track displacement.
We used tandem fluorescent mRFP-GFP-LC3 (tfLC3) to monitor autophagy in primary RPE cells in real time.
as §1

[3] = test system: LC3B-II and p62 in primary RPE monolayers; assay: Immunoblotting of LC3B-II and p62 in polarized primary RPE monolayers; type: cell-based, porcine
Experimental: RPE harvested from mouse eyecups were sonicated in lysis buffer with protease inhibitors for 10 min. Primary RPE on TRANSWELL filters were harvested and lysed with NE-PER nuclear and cytoplasmic extraction reagents (Thermo Scientific #78833) according to the manufacturer's recommendation. Protein concentrations were measured with DC assay (BioRad). […] Proteins were then transferred onto nitrocellulose membrane using IBLOT dry transfer system (INVITROGEN), blocked in 5% milk in TBS-T for 1 hour before incubating in primary antibody overnight at 4° C. Membranes were probed with antibodies to LC3B (1:3000, Novus NB600-1384 for pig and 1:500, Sigma L7543 for mouse), p62/SQSTM1 (1:1000, ARP03-GP62-C) and actin (1:5000, Santa Cruz) followed by horseradish peroxidase-conjugated secondary antibodies. Immunoblots were visualized by ECL substrate (Thermo Scientific) and quantified using Image Studio (LI-COR). […] Other drugs used were the mTOR inhibitors Torin 1 and Torin 2 (50 nM and 1.5 μM, respectively, for 2 h, TOCRIS), the vacuolar ATPase inhibitor bafilomycin A1 (100 nM for 2 h, EMD Millipore), the LXRα agonist TO901317 (1 μM for 20 h, Cayman Chemicals), the HDAC6 inhibitor trichostatin A (TSA, 500 nM, 16 h, Sigma) and the ASMase inhibitor desipramine (10 μM for 3 h, Sigma). To depolymerize MTs, cells were treated with 33 μM nocodazole for 30 minutes, followed by cold-treatment (4° C.) for 30 minutes (Kreitzer et al., 2003). At the concentrations and exposure times used, none of these drugs caused alterations in RPE cell morphology or physiology (monitored by TER measurements, ZO-1 and organelle marker staining). […] Conversion of LC3B-I to its lipidated form (LC3B-II) is an indicator of autophagosome biogenesis and p62 levels are a measure of autophagic flux (Klionsky et al., 2012).

[4] = Table 4, potential issues; cited from earlier work
[5] = test system: EGFP-LC3-labeled autophagosomes in primary RPE; assay: Live imaging of EGFP-LC3 autophagosome trafficking (spinning disk, Boolean gating); type: cell-based, porcine
Experimental: RPE cells were transfected with EGFP-LC3 or tandem fluorescent mRFP-GFP-LC3 (Addgene) using the AMAXA NUCLEOFECTOR II (Lonza). Approximately 1.5 million cells and 5 μg of plasmid DNA were used for each transfection. Cells were plated either on serum-coated glass-bottom dishes (Mattek) or TRANSWELL filters at confluence. Live imaging of autophagosome traffic and autophagic flux were performed on the Revolution XD spinning disk microscopy system (Andor) equipped with the Yokogawa CSU-X1 confocal spinning disk head, Nikon Eclipse Ti inverted microscope surrounded by an Okolab cage incubator, iXon x3 897 EM-CCD camera, Andor laser combiner with four solid state lasers at 405, 488, 561, and 640 nm and corresponding band-pass filter sets (Sutter), and ASI motorized stage with piezo-Z for rapid Z-stack acquisition. Andor IQ2 software was used for image acquisition and Imaris x64 (Bitplane) for image analysis. For live imaging, cells were serum starved for 2 h to induce autophagy and rapid z-stacks were acquired using the 100×1.49 NA Apo TIRF objective (Nikon) for ˜50 frames at 37° C. Trafficking data was collected from three separate transfections for a total of at least 12-30 movies captured for treatment. During image acquisition care was taken to maintain the same laser power, exposure and electron-multiplying gain settings. Trafficking analysis was carried out using the Spots and Tracks modules of the Imaris software (Liu et al., 2010). After background subtraction (using the background subtraction algorithm and identical automatic threshold for all images) and smoothing (Gaussian algorithm with identical threshold settings for all images), Spots and Tracks algorithms were used to identify vesicles and follow them through time and cell-space to obtain total track length and track displacement. […] Data were analyzed using either a two-tailed t-test or one-way ANOVA followed by Bonferroni or Dunnett's post-tests (GraphPad PRISM). Unless otherwise stated, data are presented as Mean±S.E.M. of ≥3 independent experiments, with 3 to 4 replicates per condition per experiment. […] Regions were defined by: minimum or maximum track length, minimum or maximum displacement and a slope of 0.5 (displacement divided by length). Tracks with slope <0.5 were taken as less straight (region 2) than those with slope of >0.5 (region 3). Tracks within each region are represented as a percent of total number of tracks in Tables 1 and 2. One-way ANOVA or t-tests were used to compare regions between treatment groups. […] To examine the efficiency of autophagosome transport, Spots and Tracks algorithms in Imaris were used to calculate how far each autophagosome traveled (track displacement length) as a function of the movement required to travel that distance (total track length) (Liu et al., 2010).

[6] = A2E-laden RPE after mTOR inhibition, TO901317 1 μM 20 h, desipramine 10 μM 3 h
[7] = percent of total EGFP-LC3 tracks, serum-starved RPE, TSA 500 nM

## CNCCC(Oc1ccc(C(F)(F)F)cc1)c1ccccc1 (stereo not shown) [fluoxetine]
[1]
  acetylated tubulin in RPE with A2E: as effective as desipramine in decreasing acetylated tubulin; also recorded: decreased acetylated tubulin levels in RPE with A2E back to control levels

## CCC(=O)N1CCN(c2ccc(-n3c(=O)ccc4cnc5ccc(-c6cnc7ccccc7c6)cc5c43)cc2C(F)(F)F)CC1 [Torin 1]
[2]
  autophagy after mTOR inhibition: autophagy was upregulated

## CCN(CC)CCO[C@H]1CC[C@@]2(C)C(=CC[C@@H]3[C@@H]2CC[C@]2(C)C(=O)CC[C@@H]32)C1 [U18666A]
[1]; agent alone versus control RPE, U18666A 1 μM, 16 h
  acetylated tubulin: Acetylated tubulin also increased

## Nc1ccc(-c2ccc3ncc4ccc(=O)n(-c5cccc(C(F)(F)F)c5)c4c3c2)cn1 [Torin 2]
[2]
  autophagy after mTOR inhibition: autophagy was upregulated

## CO/C1=C\C(C)=C\[C@@H](C)[C@@H](O)[C@@H](C)C/C(C)=C/C=C/[C@H](OC)[C@@H]([C@@H](C)[C@@H](O)[C@H](C)[C@@]2(O)C[C@@H](O)[C@H](C)[C@@H](C(C)C)O2)OC1=O [Bafilomycin A1]
[3]; after mTOR inhibition, agent versus control RPE
  LC3B-II levels (immunoblot): increased LC3B-II after mTOR inhibition in control cells but not cells exposed to A2E

## O=S(=O)(c1ccccc1)N(CC(F)(F)F)c1ccc(C(O)(C(F)(F)F)C(F)(F)F)cc1 [TO901317]
[3]; [6]
  LC3B-II levels / autophagosome biogenesis (immunoblot): increased autophagosome biogenesis
  p62 levels / autophagic flux (immunoblot): significantly lesser than corresponding condition without TO901317
[2]
  autophagic flux / autophagosome-lysosome fusion (tfLC3 EGFP:mRFP): restored autophagic flux in cells with A2E and decreased EGFP fluorescence back to control levels

## COc1ccc(CCN2CCC(Nc3nc4ccccc4n3Cc3ccc(F)cc3)CC2)cc1 [astemizole]
[2]
  autophagic flux / autophagosome-lysosome fusion (tfLC3 EGFP:mRFP): completely reversed the autophagic block induced by A2E

## CC(C)(C(=O)O)c1ccc(C(O)CCCN2CCC(C(O)(c3ccccc3)c3ccccc3)CC2)cc1 (stereo not shown) [Fexofenadine]
[2]
  autophagic flux / autophagosome-lysosome fusion (tfLC3 EGFP:mRFP): not as effective as astemizole, sertraline or desipramine in increasing autophagic flux

## O=P(O)(O)C(O)(Cn1ccnc1)P(=O)(O)O [zoledronic acid]
[4]
  oral bioavailability: <4% oral

## CC(/C=C/C(=O)NO)=C\[C@@H](C)C(=O)c1ccc(N(C)C)cc1 [TSA, trichostatin A]
[5]; agent alone versus control RPE
  autophagosome trafficking (long-range, directed movements): replicated the autophagosome trafficking defects seen in cells with A2E
[5]; [7]
  Region 1 (R1) (D <2 μm, L <5 μm): 88.01%
  Region 3 (R3) (L >5 μm, Slope >0.5 μm): 1.64%

## CN(C)CCC=C1c2ccccc2CCc2ccccc21 [amitriptyline]
[1]
  acetylated tubulin in RPE with A2E: as effective as desipramine in decreasing acetylated tubulin; also recorded: decreased acetylated tubulin levels in RPE with A2E back to control levels

## CN[C@H]1CC[C@@H](c2ccc(Cl)c(Cl)c2)c2ccccc21 [sertraline]
[2]
  autophagic flux / autophagosome-lysosome fusion (tfLC3 EGFP:mRFP): completely reversed the autophagic block induced by A2E
